The target in assay [1] is Metabotropic glutamate receptor 5 (Rattus norvegicus, UniProt P31424). Briefly: Negative allosteric modulator activity at rat mGlu5 expressed in HEK293A cells assessed as reduction in glutamate-induced calcium mobilization. Type of assay: functional, cell-based, HEK293-A. On the technique in general: Calcium flux is commonly read through the fluorescence of an indicator in the cells.

In assay [2] the target is Metabotropic glutamate receptor 5 (Rattus norvegicus) (UniProt P31424). Description: Negative allosteric modulator activity at rat mGlu5 expressed in HEK293A cells assessed as reduction in 100 uM glutamate-induced calcium mobilization at 30 uM. The assay is classed as functional, cell-based. The following applies: HEK293-A.
Chain of Metabotropic glutamate receptor 5 (Rattus norvegicus) (P31424 21-1203 limits assumed): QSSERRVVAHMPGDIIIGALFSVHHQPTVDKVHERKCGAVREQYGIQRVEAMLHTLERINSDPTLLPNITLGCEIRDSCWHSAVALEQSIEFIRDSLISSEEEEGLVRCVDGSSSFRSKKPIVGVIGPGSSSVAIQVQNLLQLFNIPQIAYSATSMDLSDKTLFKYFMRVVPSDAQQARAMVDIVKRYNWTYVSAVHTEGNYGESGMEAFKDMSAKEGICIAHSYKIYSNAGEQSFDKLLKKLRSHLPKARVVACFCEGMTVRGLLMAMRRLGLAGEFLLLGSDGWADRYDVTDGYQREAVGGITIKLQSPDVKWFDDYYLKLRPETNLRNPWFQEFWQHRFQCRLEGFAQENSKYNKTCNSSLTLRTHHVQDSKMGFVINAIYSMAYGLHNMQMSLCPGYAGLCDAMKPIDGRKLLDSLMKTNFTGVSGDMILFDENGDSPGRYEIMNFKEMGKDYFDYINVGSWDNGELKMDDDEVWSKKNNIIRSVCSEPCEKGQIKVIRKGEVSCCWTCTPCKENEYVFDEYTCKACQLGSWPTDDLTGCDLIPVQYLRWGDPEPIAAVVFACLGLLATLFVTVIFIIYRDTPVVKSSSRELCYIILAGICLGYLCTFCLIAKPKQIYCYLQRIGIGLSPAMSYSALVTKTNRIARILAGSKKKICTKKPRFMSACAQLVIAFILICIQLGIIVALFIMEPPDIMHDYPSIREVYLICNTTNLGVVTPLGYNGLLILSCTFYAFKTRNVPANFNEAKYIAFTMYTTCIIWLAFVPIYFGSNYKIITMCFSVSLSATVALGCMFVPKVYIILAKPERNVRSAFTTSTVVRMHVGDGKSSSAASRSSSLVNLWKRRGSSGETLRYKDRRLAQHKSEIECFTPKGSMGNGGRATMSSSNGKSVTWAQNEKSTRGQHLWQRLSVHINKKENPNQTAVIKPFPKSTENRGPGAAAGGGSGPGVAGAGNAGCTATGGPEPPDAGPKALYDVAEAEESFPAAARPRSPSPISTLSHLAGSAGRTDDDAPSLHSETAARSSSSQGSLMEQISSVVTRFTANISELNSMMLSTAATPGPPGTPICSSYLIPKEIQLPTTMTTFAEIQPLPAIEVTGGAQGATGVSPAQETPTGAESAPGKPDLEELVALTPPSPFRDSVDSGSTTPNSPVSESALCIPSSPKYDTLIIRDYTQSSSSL

As usually defined, the IC50 is the concentration that inhibits the measured activity by half.

Molecules are shown by their SMILES.

Chain of Metabotropic glutamate receptor 5 (P31424 whole entry): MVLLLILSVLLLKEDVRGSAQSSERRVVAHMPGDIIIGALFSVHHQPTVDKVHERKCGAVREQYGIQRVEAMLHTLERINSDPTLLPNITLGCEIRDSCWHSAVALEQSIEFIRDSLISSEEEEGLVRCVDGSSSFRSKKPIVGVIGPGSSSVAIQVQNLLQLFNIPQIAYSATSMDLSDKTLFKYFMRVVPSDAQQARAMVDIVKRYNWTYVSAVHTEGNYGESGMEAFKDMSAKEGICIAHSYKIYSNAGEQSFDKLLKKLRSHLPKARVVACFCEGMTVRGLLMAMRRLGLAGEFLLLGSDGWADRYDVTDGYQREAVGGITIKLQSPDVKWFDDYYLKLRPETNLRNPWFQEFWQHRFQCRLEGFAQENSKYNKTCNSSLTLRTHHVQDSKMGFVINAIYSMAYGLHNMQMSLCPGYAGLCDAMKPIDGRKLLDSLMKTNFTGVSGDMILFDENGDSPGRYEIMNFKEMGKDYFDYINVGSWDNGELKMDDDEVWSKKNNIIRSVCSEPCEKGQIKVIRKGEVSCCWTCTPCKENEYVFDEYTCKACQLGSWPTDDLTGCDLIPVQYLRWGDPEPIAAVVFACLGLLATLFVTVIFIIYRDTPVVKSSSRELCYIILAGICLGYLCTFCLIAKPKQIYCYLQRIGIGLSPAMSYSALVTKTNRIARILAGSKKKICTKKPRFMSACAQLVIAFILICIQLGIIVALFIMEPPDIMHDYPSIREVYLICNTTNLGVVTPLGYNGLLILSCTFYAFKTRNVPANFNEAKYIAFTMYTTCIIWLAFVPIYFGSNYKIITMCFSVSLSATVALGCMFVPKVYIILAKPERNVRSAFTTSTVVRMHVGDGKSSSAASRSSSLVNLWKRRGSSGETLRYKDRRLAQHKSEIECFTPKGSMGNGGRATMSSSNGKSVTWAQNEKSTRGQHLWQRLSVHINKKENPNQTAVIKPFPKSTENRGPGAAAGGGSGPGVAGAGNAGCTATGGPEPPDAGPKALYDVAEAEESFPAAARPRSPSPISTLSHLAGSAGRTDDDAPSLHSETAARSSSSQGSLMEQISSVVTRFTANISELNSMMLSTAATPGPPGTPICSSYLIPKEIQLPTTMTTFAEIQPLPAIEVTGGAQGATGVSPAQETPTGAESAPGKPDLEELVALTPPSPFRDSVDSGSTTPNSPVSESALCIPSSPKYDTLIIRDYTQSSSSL

`O=C(Nc1cncc(Oc2cncc(F)c2)n1)c1cccc(Cl)c1F`: the 50% inhibitory concentration (IC50) in assay [1] was above 30 µM.

On to `COc1cccc(C(=O)Nc2cncc(Oc3cncnc3)n2)c1`, for which, in assay [2], the %max is -4.3%.

`O=C(Nc1ccnc(Oc2cccnc2)c1)c1cccc(Cl)c1`: in assay [1], the half-inhibitory concentration (IC50) amounted to 3.7 µM.

On to `O=C(Nc1cncc(Oc2cncc(F)c2)n1)c1ccccn1`, for which, in assay [1], the IC50 is above 10 µM. Further, in assay [2], the %max was 40%.

Consider `Cc1ccc(C(=O)Nc2cncc(Oc3cncnc3)n2)s1`, for which, in assay [1], the IC50 was above 30 µM.

As to `O=C(Nc1cncc(Oc2cncc(F)c2)n1)c1cscn1`, the half-inhibitory concentration (IC50) in assay [1] was determined as 8.43 µM. The %max in assay [2] was 22%.

For the compound `COc1cc(OC)cc(C(=O)Nc2cncc(Oc3cncc(F)c3)n2)c1`, the IC50 in assay [1] is above 30 µM.

In the case of `N#Cc1cc(F)cc(C(=O)Nc2cncc(Oc3cncc(F)c3)n2)c1`, the IC50 in assay [1] is above 30 µM.

With `O=C(Nc1cncc(Oc2cncc(F)c2)n1)c1cncs1`, the half-maximal inhibitory concentration (IC50) in assay [1] is above 30 µM.

In the case of `O=C(Nc1cncc(Oc2cncnc2)n1)c1cc(Br)ccn1`, the IC50 in assay [1] came to 0.1 µM. Besides, the %max in assay [2] stood at 2.3%.

Consider `O=C(Nc1cncc(Oc2cncnc2)n1)c1cccs1`, for which the 50% inhibitory concentration (IC50) in assay [1] is above 10 µM. In addition, the %max in assay [2] was determined as 20%.

Regarding `O=C(Nc1cncc(Oc2cncc(F)c2)n1)c1nccs1`, the IC50 in assay [1] was above 10 µM. The %max in assay [2] worked out at 40%.

Turning to `O=C(Nc1cncc(Oc2cncc(F)c2)n1)c1cc(Cl)cc(Cl)c1`, the half-maximal inhibitory concentration (IC50) in assay [1] is above 30 µM.

For the compound `CN(C)c1cccc(C(=O)Nc2cncc(Oc3cncc(F)c3)n2)c1`, the concentration for half-maximal inhibition (IC50) in assay [1] was above 10 µM. Further, the %max in assay [2] is 52%.

Turning to `COc1cccc(C(=O)Nc2cncc(Oc3cncc(F)c3)n2)c1`, the %max in assay [2] is -5.6%.

Turning to `Cc1cccc(C(=O)Nc2cncc(Oc3cncc(F)c3)n2)c1`, in assay [1], the 50% inhibitory concentration (IC50) is 0.199 µM. For the same compound, the %max in assay [2] came out at 2.1%.

With `Cc1ccnc(C(=O)Nc2cncc(Oc3cncc(F)c3)n2)c1`, the IC50 in assay [1] amounted to 0.311 µM. Also, the %max in assay [2] stood at 1.7%.

Regarding `O=C(Nc1cncc(Oc2cncc(F)c2)n1)c1cc(F)cc(Cl)c1`, the IC50 in assay [1] is above 10 µM. Further, in assay [2], the %max was 48%.

On to `O=C(Nc1cncc(Oc2cncc(F)c2)n1)c1ccncn1`, for which the 50% inhibitory concentration (IC50) in assay [1] is above 30 µM.

Take `O=C(Nc1cncc(Oc2cncc(F)c2)n1)c1cc(Cl)ccn1`: in assay [1], the IC50 worked out at 0.111 µM. The %max in assay [2] was determined as 2%.

For the compound `O=C(Nc1cncc(Oc2cncnc2)n1)c1ccccc1`, the IC50 in assay [1] was above 10 µM. Also, the %max in assay [2] was determined as 12%.

On to `Cc1nc(C(=O)Nc2cncc(Oc3cncc(F)c3)n2)cs1`, for which the %max in assay [2] was 19%.

For `O=C(Nc1cncc(Oc2cncc(F)c2)n1)c1cccnc1`, in assay [1], the half-inhibitory concentration (IC50) is above 30 µM.

Take `O=C(Nc1cncc(Oc2cncc(F)c2)n1)c1cccnn1`: in assay [1], the half-maximal inhibitory concentration (IC50) is above 30 µM.

Consider `Cc1cc(C(=O)Nc2cncc(Oc3cncc(F)c3)n2)cs1`, for which the IC50 in assay [1] was 0.99 µM. In addition, in assay [2], the %max worked out at 1.1%.

Consider `O=C(Nc1cncc(Oc2cncc(F)c2)n1)c1cccc(Cl)c1`, for which the IC50 in assay [1] is 0.118 µM. For the same compound, the %max in assay [2] turned out to be 2%.

As for `O=C(Nc1cncc(Oc2cncc(F)c2)n1)c1cccs1`, the concentration for half-maximal inhibition (IC50) in assay [1] worked out at 6.37 µM. Further, the %max in assay [2] was determined as 7.8%.

Turning to `O=C(Nc1cncc(Oc2cncnc2)n1)c1ccsc1`, the IC50 in assay [1] was above 10 µM. For the same compound, the %max in assay [2] worked out at 15%.

Consider `O=C(Nc1cncc(Oc2cncc(F)c2)n1)c1cccc(F)c1`, for which the IC50 in assay [1] came out at 3.82 µM. Besides, the %max in assay [2] is -0.4%.

Regarding `Cc1csc(C(=O)Nc2cncc(Oc3cncc(F)c3)n2)n1`, the 50% inhibitory concentration (IC50) in assay [1] was above 10 µM. The %max in assay [2] stood at 20%.

With `O=C(Nc1cncc(Oc2cncnc2)n1)c1cscn1`, in assay [1], the half-inhibitory concentration (IC50) was above 10 µM. For the same compound, in assay [2], the %max was 35%.

Regarding `O=C(Nc1cncc(Oc2cncc(F)c2)n1)c1ccccc1`, the %max in assay [2] was -9.4%.

Turning to `O=C(Nc1cncc(Oc2cncc(F)c2)n1)c1ccsc1`, in assay [2], the %max was found to be 0.1%.

As for `O=C(Nc1cncc(Oc2cncc(F)c2)n1)c1cccc(Cl)n1`, in assay [1], the IC50 is above 30 µM.

With `Cc1cccc(C(=O)Nc2cncc(Oc3cncc(F)c3)n2)n1`, the IC50 in assay [1] was above 30 µM.

`Cc1cc(C)cc(C(=O)Nc2cncc(Oc3cncc(F)c3)n2)c1`: the %max in assay [2] was determined as 6.6%.

Regarding `Cc1ccnc(C(=O)Nc2cncc(Oc3cncnc3)n2)c1`, the IC50 in assay [1] is 0.193 µM. Also, the %max in assay [2] worked out at 2.1%.

As for `O=C(Nc1cncc(Oc2cncc(F)c2)n1)c1ccc(F)c(Cl)c1`, the 50% inhibitory concentration (IC50) in assay [1] turned out to be 4.59 µM. Also, the %max in assay [2] is -2.8%.

Regarding `O=C(Nc1cncc(Oc2cncnc2)n1)c1cccc(F)c1`, the IC50 in assay [1] was determined as 5.14 µM. In addition, the %max in assay [2] is 1.5%.

On to `O=C(Nc1cncc(Oc2cccnc2)n1)c1cccc(Cl)c1`, for which the IC50 in assay [1] amounted to 0.129 µM.

Take `N#Cc1cccc(C(=O)Nc2cncc(Oc3cncc(F)c3)n2)c1`: the IC50 in assay [1] stood at 0.662 µM. In addition, in assay [2], the %max came out at 1.2%.

`O=C(Nc1cncc(Oc2cncc(F)c2)n1)c1cc(Cl)ccc1F`: the IC50 in assay [1] was 0.894 µM. Moreover, the %max in assay [2] turned out to be 1%.

Regarding `O=C(Nc1cncc(Oc2cncc(F)c2)n1)c1cc(F)cc(F)c1`, the 50% inhibitory concentration (IC50) in assay [1] was above 30 µM.
